Drawing on ChEMBL document CHEMBL1155701, “Two novel cyclic peptides with antifungal activity from the cyanobacterium Tolypothrix byssoidea (EAWAG 195)” (J Nat Prod, 2001), this text covers MIC and IC50 for 3 compounds.

For the test, the system named is Candida albicans. Nature of the test: Antifungal activity against Candida albicans ATCC 26790. In kind it is functional, organism-based.

≈ marks a conversion by molar mass, not a printed value. Non-standard residues stand in square brackets, D forms with d. Residues, ends and D or L forms follow the SMILES beside them. Dhb = C/C=C(\N)C(=O)O

`C/C=C1\NC(=O)[C@H](Cc2ccccc2)NC(=O)[C@H]([C@@H](C)CC)NC(=O)[C@H]([C@@H](C)CC)NC(=O)[C@H]([C@@H](C)O)NC(=O)[C@@H](CC(C)C)NC(=O)[C@H](CCCNC(=N)N)NC(=O)[C@H]2CCCN2C(=O)[C@H](C(C)C)NC(=O)[C@H](C(C)C)NC(=O)[C@H]([C@@H](C)O)NC(=O)[C@H]([C@@H](C)OC(C)=O)NC(=O)[C@H](C(C)C)NC1=O` registered an MIC of 32 mg/L (≈ 21.8 µM).

On to `C/C=C1\NC(=O)[C@H](C(C)C)NC(=O)[C@H](Cc2ccccc2)NC(=O)[C@H](C(C)C)NC(=O)[C@H](C(C)C)NC(=O)[C@H](C(C)C)NC(=O)[C@H]([C@@H](C)O)NC(=O)[C@H]([C@@H](C)CC)NC(=O)[C@H]([C@@H](C)O)NC(=O)[C@H](C(C)C)NC(=O)[C@H](CCSC)NC(=O)[C@H](Cc2ccc(O)cc2)NC(=O)[C@H](CCCNC(=N)N)NC1=O` (cyclo([Dhb]RYMVTITVVVFV)), for which the MIC amounted to 64 mg/L (≈ 42.9 µM). Consider `Clc1ccc(COC(Cn2ccnc2)c2ccc(Cl)cc2Cl)c(Cl)c1` (stereo not drawn) [MICONAZOLE], for which the IC50 came to 8 mg/L (≈ 19.2 µM).
